Source: ChEMBL document CHEMBL1201862, “PubChem BioAssay data set” (2004)
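All cell lines were grown in 96-well plates and treated with compound for 48 hours. GI50 is the concentration that inhibits growth by half.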 Calls of active or inactive are those of the source. Rule as the data show it: active = GI50 up to about 1.1 µM and inactive = higher.

Experiments:
Assay in all cases: inhibition of tumour cell growth, NCI panel, 48 h
SN12C = system: SN12C
NCI-H23 = system: NCI-H23
EKVX = system: EKVX
MDA-N = system: MDA-N
LOX IMVI = system: LOX IMVI
MDA-MB-231 = system: MDA-MB-231
BT-549 = system: BT-549
UACC-257 = system: UACC-257
SF-295 = system: SF-295
M14 = system: M14
SNB-75 = system: SNB-75
HOP-92 = system: HOP-92
HT-29 = system: HT-29
SF-268 = system: SF-268
SF-539 = system: SF-539
MDA-MB-435 = system: MDA-MB-435
Malme-3M = system: Malme-3M
SNB-19 = system: SNB-19
HL-60 = system: HL-60

Measured: GI50

Cc1ccc(NC(=O)c2ccccc2C(=O)O)cc1C
inactive: SN12C > 100 µM | NCI-H23 > 100 µM | EKVX > 100 µM | MDA-N > 100 µM | LOX IMVI > 100 µM | MDA-MB-231 > 100 µM | BT-549 > 100 µM | UACC-257 > 100 µM | SF-295 > 100 µM | M14 > 100 µM | SNB-75 > 100 µM | HOP-92 > 100 µM | HT-29 > 100 µM | SF-268 > 100 µM | SF-539 > 100 µM | MDA-MB-435 > 100 µM | Malme-3M > 100 µM | SNB-19 > 100 µM

Clc1c2ncccc2cc2nn[nH]c12
inactive: SN12C > 100 µM | NCI-H23 > 100 µM | EKVX > 100 µM | MDA-N > 100 µM | MDA-MB-231 > 100 µM | BT-549 > 100 µM | HL-60 14.5 µM | UACC-257 > 100 µM | SF-295 41 µM | M14 > 100 µM | SNB-75 28.5 µM | HOP-92 54 µM | HT-29 > 100 µM | SF-268 > 100 µM | SF-539 > 100 µM | MDA-MB-435 > 100 µM | Malme-3M 79.3 µM | SNB-19 > 100 µM

C[C@]12CC[C@H]3[C@@H](CCC4=C/C(=N/OCCN5CCCCC5)CC[C@@]43C)[C@@H]1CC[C@@H]2O
inactive: SN12C 17.4 µM | NCI-H23 13.7 µM | EKVX 27.3 µM | MDA-N 15 µM | LOX IMVI 11 µM | MDA-MB-231 22.2 µM | BT-549 15.4 µM | HL-60 2.99 µM | UACC-257 17.2 µM | SF-295 13.8 µM | M14 8.02 µM | SNB-75 7.26 µM | HT-29 1.37 µM | MDA-MB-435 7.66 µM | Malme-3M 15 µM | SNB-19 5.68 µM

C[C@@H](c1ccccc1)n1c(N)c(-c2ccccn2)c2ccc([N+](=O)[O-])cc2c1=O
inactive: SN12C 98.2 µM | NCI-H23 54.6 µM | MDA-N 88.7 µM | LOX IMVI > 100 µM | MDA-MB-231 86.3 µM | BT-549 44.1 µM | HL-60 52.4 µM | UACC-257 22.2 µM | SNB-75 12.8 µM | HOP-92 33.3 µM | HT-29 > 100 µM | SF-268 > 100 µM | MDA-MB-435 92.7 µM | SNB-19 35.2 µM

CC1OC(O[C@H]2C3C=CO[C@@H](OC4OC(CO)C(O)C(O)C4O)C3[C@@]3(COC(=O)/C=C/c4ccc(O)cc4)O[C@@H]23)C(O)C(O)C1O (stereo partly drawn)
inactive: SN12C > 100 µM | NCI-H23 > 100 µM | EKVX > 100 µM | MDA-N > 100 µM | LOX IMVI > 100 µM | MDA-MB-231 > 100 µM | BT-549 > 100 µM | HL-60 > 100 µM | UACC-257 > 100 µM | SF-295 > 100 µM | M14 > 100 µM | SNB-75 > 100 µM | HOP-92 > 100 µM | HT-29 > 100 µM | SF-268 > 100 µM | MDA-MB-435 > 100 µM | Malme-3M > 100 µM | SNB-19 > 100 µM

O=C(O)C1SCCS1
inactive: SN12C > 100 µM | NCI-H23 > 100 µM | EKVX > 100 µM | MDA-N > 100 µM | LOX IMVI > 100 µM | MDA-MB-231 > 100 µM | BT-549 > 100 µM | HL-60 > 100 µM | UACC-257 > 100 µM | SF-295 > 100 µM | M14 > 100 µM | SNB-75 > 100 µM | HOP-92 > 100 µM | HT-29 > 100 µM | SF-268 > 100 µM | MDA-MB-435 > 100 µM | Malme-3M > 100 µM | SNB-19 > 100 µM

C1CCSCCCCSCCCCSCCCCSC1
inactive: SN12C > 100 µM | NCI-H23 > 100 µM | EKVX > 100 µM | MDA-N > 100 µM | LOX IMVI > 100 µM | MDA-MB-231 > 100 µM | BT-549 > 100 µM | UACC-257 > 100 µM | SF-295 > 100 µM | M14 > 100 µM | SNB-75 64 µM | HOP-92 > 100 µM | HT-29 > 100 µM | SF-268 > 100 µM | SF-539 > 100 µM | MDA-MB-435 > 100 µM | SNB-19 > 100 µM

COc1cc(/C=C2/C[C@H]3[C@@H]4CCC5=CC(=O)CC[C@]5(C)[C@H]4CC[C@]3(C)NC2=O)cc(OC)c1OC
inactive: SN12C 22.1 µM | NCI-H23 21.3 µM | EKVX 24.5 µM | MDA-N 26.4 µM | MDA-MB-231 19.7 µM | BT-549 21.6 µM | HL-60 13.2 µM | UACC-257 20.7 µM | SF-295 20 µM | M14 27.4 µM | SNB-75 15.6 µM | HOP-92 11.2 µM | HT-29 19.3 µM | SF-268 26.3 µM | MDA-MB-435 19.5 µM | Malme-3M 26.7 µM | SNB-19 45 µM

[N-]=[N+]=Nc1ccc2c(c1)Sc1ccccc1N2CCCCN1CCN(Cc2ccc(C(=O)c3ccc(CSCC(N)C(=O)O)cc3)cc2)CC1 (stereo not drawn)
inactive: SN12C 31.3 µM | NCI-H23 31.3 µM | EKVX 52.8 µM | MDA-N 12.8 µM | LOX IMVI 10.6 µM | MDA-MB-231 13.6 µM | BT-549 18 µM | HL-60 6.55 µM | UACC-257 22.8 µM | SF-295 18.2 µM | HOP-92 9.84 µM | HT-29 14 µM | SF-268 27.5 µM | MDA-MB-435 1.59 µM | Malme-3M > 10 µM

NCCCNCCCCN1CCOC1=O
inactive: SN12C > 100 µM | NCI-H23 > 100 µM | EKVX > 100 µM | MDA-N > 100 µM | LOX IMVI > 100 µM | MDA-MB-231 > 100 µM | BT-549 > 100 µM | HL-60 > 100 µM | UACC-257 > 100 µM | SF-295 > 100 µM | M14 > 100 µM | SNB-75 > 100 µM | HT-29 > 100 µM | SF-268 > 100 µM | SF-539 > 100 µM | MDA-MB-435 > 100 µM | Malme-3M > 100 µM | SNB-19 > 100 µM

Cc1ccc(Nc2cc(=O)[nH]c(=O)[nH]2)cc1CS
inactive: SN12C > 100 µM | NCI-H23 > 100 µM | EKVX > 100 µM | MDA-N > 100 µM | LOX IMVI > 100 µM | MDA-MB-231 > 100 µM | BT-549 58.1 µM | UACC-257 > 100 µM | SF-295 > 100 µM | M14 > 100 µM | SNB-75 > 100 µM | HOP-92 > 100 µM | HT-29 > 100 µM | SF-268 61.4 µM | SF-539 > 100 µM | MDA-MB-435 > 100 µM | Malme-3M > 100 µM | SNB-19 > 100 µM

O=[N+]([O-])c1ccc(Cl)cc1N/N=C/c1cccs1
inactive: SN12C > 100 µM | NCI-H23 > 100 µM | EKVX > 100 µM | MDA-N > 100 µM | MDA-MB-231 > 100 µM | BT-549 > 100 µM | HL-60 > 100 µM | UACC-257 > 100 µM | SF-295 > 100 µM | M14 > 100 µM | SNB-75 > 100 µM | HT-29 > 100 µM | SF-268 > 100 µM | SF-539 > 100 µM | MDA-MB-435 > 100 µM | SNB-19 > 100 µM
